Test results reported in ChEMBL document CHEMBL3865833, “Functional induction of P-glycoprotein efflux pump by phenyl benzenesulfonamides: Synthesis and biological evaluation of T0901317 analogs” (Eur J Med Chem, 2016).
Calls of active or inactive are those of the source. No cut-off for these calls is given here.

Assays:
LS180 [1] = assay: (§1) Activation of PXR/LXR in human LS180 cells assessed as induction of P-gp by measuring decrease in intracellular accumulation of Rhodamine-123 at 0.3 uM preincubated for 48 hrs followed by 40 mins incubation with HANKS buffer and subsequent addition of Rhodamine-123 measured after 90 mins by fluorescence assay; assay type: cell-based
[2] = Therapeutic index, ratio of effective concentration for cytotoxicity in human SH-SY5Y cells to effective concentration for activation of PXR/LXR in human LS180 cells assessed as induction of P-gp; assay type: cell-based; settings: read-out: TI
[3] = Therapeutic index, ratio of effective concentration for cytotoxicity in human LS180 cells to effective concentration for activation of PXR/LXR in human LS180 cells assessed as induction of P-gp; assay type: cell-based; settings: read-out: TI
[4] = Cytotoxicity against human LS180 cells assessed as effect on cell viability at 50 uM measured after 24 hrs by MTT assay relative to control; assay type: toxicity, cell-based; settings: read-out: Activity
LS180 [5] = assay: as §1, with “measured as” for “by measuring decrease in”, “5” for “0.3”, “analysis relative to control” for “assay”; assay type: cell-based
[6] = Neuroprotective activity in human SH-SY5Y cells assessed as decrease in amyloid beta-induced cytotoxicity measured as cell viability at 5 uM pretreated for 30 mins prior amyloid beta-challenge measured after 48 hrs by MTT assay (reference value: 68%); assay type: functional
[7] = Cytotoxicity against human SH-SY5Y cells assessed as effect on cell viability at 50 uM measured after 24 hrs by MTT assay relative to control; assay type: toxicity, cell-based; settings: read-out: Activity
LS180 [8] = assay: as §1, with “measuring” for “measuring decrease in”, “10” for “0.3”, “assay relative to control” for “assay”; assay type: cell-based
LS180 [9] = assay: Activation of PXR/LXR in human LS180 cells assessed as induction of P-gp at 5 uM measured after 24 hrs by Western blot analysis; assay type: cell-based
[10] = Cytotoxicity against human LS180 cells assessed as effect on cell viability measured after 24 hrs by MTT assay; assay type: toxicity, cell-based
[11] = Cytotoxicity against human SH-SY5Y cells assessed as effect on cell viability measured after 24 hrs by MTT assay; assay type: toxicity, cell-based

SMILES: O=S(=O)(c1ccccc1)N(Cc1cn(-c2c(F)cccc2F)nn1)c1ccc(C(O)(C(F)(F)F)C(F)(F)F)cc1
- Activity (LS180 [1]): Active
- selectivity ratio [2]: 10
- selectivity ratio [3]: 10
- viability at 24 h, 50 µM [4]: 74.5%
- Activity (LS180 [5]): 65.1%
- Activity [6]: 75%
- viability at 24 h, 50 µM [7]: 125%

SMILES: CO[C@H]1/C=C/O[C@@]2(C)Oc3c(C)c(O)c4c(O)c(c(/C=N/N5CCN(C)CC5)c(O)c4c3C2=O)NC(=O)/C(C)=C\C=C\[C@H](C)[C@H](O)[C@@H](C)[C@@H](O)[C@@H](C)[C@H](OC(C)=O)[C@@H]1C
- Activity (LS180 [8]): 66.9%

SMILES: CC(=O)c1ccc(N(Cc2cn(-c3ccc(C(F)(F)F)cc3)nn2)S(=O)(=O)c2ccccc2)cc1
- Activity (LS180 [1]): Active
- Activity (LS180 [9]): Active
- selectivity ratio [2]: > 166
- selectivity ratio [3]: > 166
- viability at 24 h, 50 µM [4]: 76.7%
- Activity (LS180 [5]): 48.4%
- Activity [6]: 79%
- viability at 24 h, 50 µM [7]: 108%
- IC50 at 24 h [10]: > 50 µM
- IC50 at 24 h [11]: > 50 µM
